Tests used:
Rattus norvegicus [1] = test: Antihypertensive activity in anesthetized Wistar rat assessed as change in heart rate at 0.1 mg/kg, iv administered as bolus dose after 15 mins (reference value: -6.0 […]); format: functional
[2] = biological target: T1, Adrenergic receptor alpha-1 (Rattus norvegicus, UniProt P15823+P23944+P43140); test: Displacement of [3H]prazosine from Alpha-1 adrenergic receptor in Sprague-Dawley rat brain P2 membranes after […] by liquid scintillation counting
T1 sequence (P15823 whole entry): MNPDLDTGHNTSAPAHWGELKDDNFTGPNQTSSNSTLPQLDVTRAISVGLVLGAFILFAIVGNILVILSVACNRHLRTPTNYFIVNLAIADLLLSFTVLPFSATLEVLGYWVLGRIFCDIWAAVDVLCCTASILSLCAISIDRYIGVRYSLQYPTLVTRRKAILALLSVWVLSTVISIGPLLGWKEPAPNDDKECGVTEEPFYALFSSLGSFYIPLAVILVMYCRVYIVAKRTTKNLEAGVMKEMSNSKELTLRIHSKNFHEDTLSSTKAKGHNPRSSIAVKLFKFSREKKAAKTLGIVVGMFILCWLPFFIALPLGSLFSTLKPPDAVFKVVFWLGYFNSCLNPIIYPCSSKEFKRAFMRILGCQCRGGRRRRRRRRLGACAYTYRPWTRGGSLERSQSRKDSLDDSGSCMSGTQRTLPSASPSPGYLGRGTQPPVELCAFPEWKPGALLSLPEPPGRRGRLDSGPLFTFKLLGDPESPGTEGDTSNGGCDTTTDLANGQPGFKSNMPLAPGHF
T1 sequence (P23944 whole entry): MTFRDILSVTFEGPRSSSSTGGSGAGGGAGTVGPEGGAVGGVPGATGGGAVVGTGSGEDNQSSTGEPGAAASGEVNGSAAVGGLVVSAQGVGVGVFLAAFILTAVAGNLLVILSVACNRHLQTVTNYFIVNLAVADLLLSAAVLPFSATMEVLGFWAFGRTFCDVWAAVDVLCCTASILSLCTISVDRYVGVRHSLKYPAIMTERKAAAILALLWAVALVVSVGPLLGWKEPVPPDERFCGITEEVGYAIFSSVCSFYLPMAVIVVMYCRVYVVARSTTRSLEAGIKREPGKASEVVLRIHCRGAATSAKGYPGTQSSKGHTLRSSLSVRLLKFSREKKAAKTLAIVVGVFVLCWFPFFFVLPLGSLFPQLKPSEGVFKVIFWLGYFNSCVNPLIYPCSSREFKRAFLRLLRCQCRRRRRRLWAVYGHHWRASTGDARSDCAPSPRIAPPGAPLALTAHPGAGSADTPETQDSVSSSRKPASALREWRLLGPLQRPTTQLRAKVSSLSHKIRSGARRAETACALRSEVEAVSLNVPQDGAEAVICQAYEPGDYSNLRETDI
T1 sequence (P43140 whole entry): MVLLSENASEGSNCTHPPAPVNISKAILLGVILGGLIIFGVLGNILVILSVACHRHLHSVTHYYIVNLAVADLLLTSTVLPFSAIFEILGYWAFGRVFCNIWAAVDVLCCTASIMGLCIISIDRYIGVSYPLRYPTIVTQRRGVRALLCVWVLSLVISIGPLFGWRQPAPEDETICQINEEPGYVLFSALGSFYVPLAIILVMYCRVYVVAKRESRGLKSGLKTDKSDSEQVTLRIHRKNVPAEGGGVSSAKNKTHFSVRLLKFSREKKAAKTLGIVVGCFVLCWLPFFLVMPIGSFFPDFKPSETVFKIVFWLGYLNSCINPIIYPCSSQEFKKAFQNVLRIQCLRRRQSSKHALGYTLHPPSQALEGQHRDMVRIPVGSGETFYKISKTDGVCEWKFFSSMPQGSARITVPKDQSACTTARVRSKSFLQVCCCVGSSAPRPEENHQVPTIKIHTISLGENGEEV

Rattus norvegicus [3] = test: Antihypertensive activity in anesthetized Wistar rat assessed as change in mean arterial blood pressure at 0.1 mg/kg, iv administered as bolus dose after 60 mins (reference value: -3.5 mmHg); format: functional
Rattus norvegicus [4] = test: Antihypertensive activity in anesthetized Wistar rat assessed as change in mean arterial blood pressure at 0.1 mg/kg, iv administered as bolus dose after 15 mins (reference value: -0.8 mmHg); format: functional
Rattus norvegicus [5] = test: Antihypertensive activity in anesthetized Wistar rat assessed as change in mean arterial blood pressure at 0.1 mg/kg, iv administered as bolus dose after 2 mins; format: functional
[6] = Displacement of [3H]2BFI from Imidazoline receptor 2 in Sprague-Dawley rat brain P2 membrans after […] by liquid scintillation counting
Rattus norvegicus [7] = test: Antihypertensive activity in anesthetized Wistar rat assessed as change in heart rate at 0.1 mg/kg, iv administered as bolus dose after 30 mins (reference value: -8.6 […]); format: functional
Rattus norvegicus [8] = test: Antihypertensive activity in anesthetized Wistar rat assessed as change in mean arterial blood pressure at 0.1 mg/kg, iv administered as bolus dose after 5 mins (reference value: 0.4 mmHg); format: functional

Compound | Activity (Rattus norvegicus [1]) | Ki [2] | Activity (Rattus norvegicus [3]) | Activity (Rattus norvegicus [4]) | Activity (Rattus norvegicus [5]) | Ki [6] | Activity (Rattus norvegicus [7]) | Activity (Rattus norvegicus [8])
Cl.Clc1cccc2ccn(CC3=NCCN3)c12 | -130.7 bpm | 6.82 nM | -61.2 mmHg | -36 mmHg | 15.2 mmHg | 71.1 nM | -125.4 bpm | 7.4 mmHg
Cl.c1ccc2c(c1)ccn2CC1=NCCN1 | -115.2 bpm | 61.4 nM | -38.5 mmHg | 6.9 mmHg | 34.1 mmHg | 197 nM | -105.3 bpm | 33.7 mmHg
Br.Cc1cccc2ccn(CC3=NCCN3)c12 | -107.5 bpm | 24.97 nM | -40.9 mmHg | -39.2 mmHg | 13.4 mmHg | 1160 nM | -111.7 bpm | -4.2 mmHg

From ChEMBL document CHEMBL3797164, “Transfer of SAR information from hypotensive indazole to indole derivatives acting at α-adrenergic receptors: In vitro and in vivo studies” (Eur J Med Chem, 2016)
